Measurements from patent publication US8980887B2, “2-aryl imidazo[1,2-a]pyridine-3-acetamide derivatives, preparation methods and uses thereof” (Institute of Pharmacology, priority 2010, dated 2015).

Tests used:
[1] = target: TSPO protein separated and purified from rat heart (Rattus norvegicus (Rat), UniProt P16257); test: TSPO and radioligand (3H-PK11195) competitive binding test; conditions: for Inhibition rate (%): n = 6 times; for IC50 / Ki: 9 gradient concentrations, plotting and fitting
Procedure: In the present test, TSPO protein separated and purified from rat heart was used as screening target, via competitive binding test with radioligand (^3H-PK11195), to screen TSPO ligand compounds.
Wister rats, 220-260 g, female and male, were sacrificed by decapitation and the rat heart were rapidly separated, weighed and to which homogenized in 10 times volume of Tris-HCl buffer solution (50 mM Tris-HCl, 5 mM MgCl2, 1 mM EDTA, 0.5% (W/V) BSA, 1 mM PMSF, 3 μg/ml proteinase inhibitor, 0.1% NaN3, 0.32M sucrose, pH 7.4) at 15,000 rpm for 30 s, total 5 times. The homogenate was centrifuged under 1000×g for 10 minutes and the supernatant was then centrifuged under 30000×g for 20 minutes. The precipitate was collected, and resuspended with 10 times volume of Tris-HCl buffer solution (pH 7.4) relative to the original weight, then centrifuged under 30000×g for 20 minutes. The precipitate was washed with the same buffer solution, centrifuged under 30000×g for 20 minutes and the precipitate was suspended with the above buffer solution. After sub-packaged (the whole operation procedures were performed under ice bath), the product was stored at −80° C.
3) Competitive Binding Test of Drug to the Receptor (Rat Heart TSPO) and Radioligand (^3H-PK11195):
(1) tubes were placed in reaction condition of 30° C.
(2) all tubes were added with 20 μg of receptor protein in order;
(3) the test tubes were added in order with 20 μL of drugs in certain concentrations;
(4) the non-specific binding tubes were added with 20 μL of non-tagged ligand (PK11195), the final concentration of the non-tagged ligand was 0.1 mM, pre-reacted for 30 min;
(5) all tubes were added in order with 25 μL ^3H-PK11195, the final concentration of the labeled ligand was 1.5 nM;
(6) Tris-HCl Buffer pH7.4 was used to complement the reaction volumes of all tubes to reach 200 μL;
(7) the reaction was performed under 30° C. reaction condition for 1 h;
(8) Then samples were applied to 49-type glass fibre filter, vacuum suction filtered, then washed with 2 ml ice-cold Tris-HCl buffer solution (50 mM Tris-HCl buffer solution, 1 mM EDTA, 5 mM MgCl2, 1 mM PMSF, 0.1% NaN3, 3 μg/ml proteinase inhibitor, pH 7.4). The filter was dried and placed in a scintillation vial with 1 ml of scintillation fluid. The radio-activity was measured by a scintillation counter.

Compound	Inhibition rate (%) ([1]; 1 × 10^−5M)	Inhibition rate (%) ([1]; 1 × 10^−7M)	Inhibition rate (%) ([1]; 1 × 10^−9M)	melting point	IC50 [1]	Ki [1]
CCN(Cc1ccccc1)C(=O)Cc1c(-c2ccc(Cl)cc2)nc2cc(C)ccn12 [Compound 1, N-benzyl-N-ethyl-2-(4-chlorophenyl)-7-methylimidazo[1,2-a]pyridine-3-acetamide]	100%	87%	12%	192 to 193 °C	–	–
CCN(Cc1ccccn1)C(=O)Cc1c(-c2ccc(Cl)cc2)nc2cc(C)ccn12.Cl [Compound 2, N-ethyl-N-(2-pyridinylmethyl)-2-(4-chlorophenyl)-7-methylimidazo[1,2-a]pyridine-3-acetamide.hydrochloride]	100%	59%	0%	178 to 180 °C	–	–
CCN(Cc1cccnc1)C(=O)Cc1c(-c2ccc(Cl)cc2)nc2cc(C)ccn12.Cl [Compound 3, N-ethyl-N-(3-pyridinylmethyl)-2-(4-chlorophenyl)-7-methylimidazo[1,2-a]pyridine-3-acetamide.hydrochloride]	100%	25%	0%	236 to 238 °C	–	–
CCN(Cc1ccncc1)C(=O)Cc1c(-c2ccc(Cl)cc2)nc2cc(C)ccn12.Cl [Compound 4, N-ethyl-N-(4-pyridinylmethyl)-2-(4-chlorophenyl)-7-methylimidazo[1,2-a]pyridine-3-acetamide.hydrochloride]	100%	50%	0%	245 to 247 °C	–	–
COCCN(Cc1ccccn1)C(=O)Cc1c(-c2ccc(Cl)cc2)nc2cc(C)ccn12.Cl [Compound 5, N-(2-methoxyethyl)-N-(2-pyridinylmethyl)-2-(4-chlorophenyl)-7-methylimidazo[1,2-a]pyridine-3-acetamide.hydrochloride]	100%	43%	0%	238 to 239 °C	–	–
COCCN(Cc1cccnc1)C(=O)Cc1c(-c2ccc(Cl)cc2)nc2cc(C)ccn12.Cl [Compound 6, N-(2-methoxyethyl)-N-(3-pyridinylmethyl)-2-(4-chlorophenyl)-7-methylimidazo[1,2-a]pyridine-3-acetamide.hydrochloride]	70%	0%	0%	234 to 235 °C	–	–
CCN(Cc1ccccc1)C(=O)Cc1c(-c2ccc(Cl)c(Cl)c2)nc2cc(C)ccn12 [Compound 7, N-benzyl-N-ethyl-2-(3,4-dichlorophenyl)-7-methylimidazo[1,2-a]pyridine-3-acetamide]	99%	72%	10%	180 to 182 °C	116 nM	49.2 nM
CCN(Cc1cccnc1)C(=O)Cc1c(-c2ccc(Cl)c(Cl)c2)nc2cc(C)ccn12.Cl [Compound 9, N-ethyl-N-(3-pyridinylmethyl)-2-(3,4-dichlorophenyl)-7-methylimidazo[1,2-a]pyridine-3-acetamide.hydrochloride]	86%	8%	0%	245 to 248 °C	–	–
COCCN(Cc1cccnc1)C(=O)Cc1c(-c2ccc(Cl)c(Cl)c2)nc2cc(C)ccn12.Cl [Compound 12, N-(2-methoxyethyl)-N-(3-pyridinylmethyl)-2-(3,4-dichlorophenyl)-7-methylimidazo[1,2-a]pyridine-3-acetamide.hydrochloride]	80%	20%	0%	235 to 237 °C	–	–
CCN(Cc1ccccn1)C(=O)Cc1c(-c2ccc(C)cc2)nc2cc(C)ccn12.Cl [Compound 14, N-ethyl-N-(2-pyridinylmethyl)-2-(4-methylphenyl)-7-methylimidazo[1,2-a]pyridine-3-acetamide.hydrochloride]	97%	66%	14%	218 to 220 °C	91 nM	38.7 nM
CCN(Cc1cccnc1)C(=O)Cc1c(-c2ccc(C)cc2)nc2cc(C)ccn12.Cl [Compound 15, N-ethyl-N-(3-pyridinylmethyl)-2-(4-methylphenyl)-7-methylimidazo[1,2-a]pyridine-3-acetamide.hydrochloride]	90%	15%	0%	251 to 253 °C	–	–
CCN(Cc1ccncc1)C(=O)Cc1c(-c2ccc(C)cc2)nc2cc(C)ccn12.Cl [Compound 16, N-ethyl-N-(4-pyridinylmethyl)-2-(4-methylphenyl)-7-methylimidazo[1,2-a]pyridine-3-acetamide.hydrochloride]	72%	41%	0%	253 to 255 °C	–	–
COCCN(Cc1ccccn1)C(=O)Cc1c(-c2ccc(C)cc2)nc2cc(C)ccn12.Cl [Compound 17, N-(2-methoxyethyl)-N-(2-pyridinylmethyl)-2-(4-methylphenyl)-7-methylimidazo[1,2-a]pyridine-3-acetamide.hydrochloride]	83%	9%	0%	239 to 240 °C	–	–
COCCN(Cc1cccnc1)C(=O)Cc1c(-c2ccc(C)cc2)nc2cc(C)ccn12.Cl [Compound 18, N-(2-methoxyethyl)-N-(3-pyridinylmethyl)-2-(4-methylphenyl)-7-methylimidazo[1,2-a]pyridine-3-acetamide.hydrochloride]	69%	32%	0%	224 to 226 °C	–	–
CCN(Cc1ccccc1)C(=O)Cc1c(-c2ccc(OC)cc2)nc2cc(C)ccn12 [Compound 19, N-benzyl-N-ethyl-2-(4-methoxyphenyl)-7-methylimidazo[1,2-a]pyridine-3-acetamide]	94%	76%	0%	175 to 178 °C	–	–
CN1C(=O)CN=C(c2ccc(Cl)cc2)c2cc(Cl)ccc21 [Compound R05-4864, 4′-chlorodiazepam, reference compound]	100%	82%	57%	–	–	–
